Publication PMC6934184, “Selective DNA-PKcs inhibition extends the therapeutic index of localized radiotherapy and chemotherapy” (The Journal of Clinical Investigation, 2019)

Target: T1, NUAK2 (Homo sapiens, UniProt Q9H093)
T1 construct: purchased Thermo Fisher Scientific (Life Technologies) SelectScreen
Assay: SelectScreen LanthaScreen
Assay type: binding
Details: 1 µM
Method: The in vitro kinase selectivity of NU5455 was determined using the SelectScreen Broad Assay Panel (Thermo Fisher Scientific) involving activity and binding assays (Supplemental Table 1). […] Class IA PI3Ks were measured using the p85α subunit.
Kinase [ATP] % Assay Kinase [ATP] % Assay Kinase [ATP] % Assay Kinase [ATP] % Assay […]
NEK2 Km app 17.8 Z CSNK1G3 (CK1 gamma 3) Km app 4.2 Z NUAK2 n/a 1.0 L KIT T670E n/a -2.8 L […]
SGK (SGK1) Km app 8.5 Z MAP4K2 (GCK) Km app 2.7 Z TLK2 n/a -0.3 L STK38 (NDR) n/a -5.9 L
MERTK (cMER) Km app 8.3 Z CDK2/cyclin A Km app 2.7 Z TGFBR1 (ALK5) n/a -0.4 L MATK (HYL) Km app -6.3 Z
FYN Km app 8.3 Z EPHA1 Km app 2.7 Z CLK3 Km app -0.5 Z ABL1 E255K Km app -6.6 Z
TEC n/a 8.1 L CDK2/cyclin E1 n/a 2.7 L MAP3K14 (NIK) n/a -0.5 L STK17A (DRAK1) n/a -6.6 L
KIT V654A n/a 8.1 L TESK2 n/a 2.7 L AKT3 (PKB gamma) Km app -0.5 Z JAK2 JH1 JH2 Km app -6.7 Z
ROS1 Km app 8.0 Z SPHK1 Km app 2.7 A MAP3K9 (MLK1) Km app -0.5 Z PRKACB (PRKAC beta) n/a -6.8 L
FGFR3 K650E Km app 7.9 Z AMPK A2/B1/G1 Km app 2.6 Z IKBKB (IKK beta) Km app -0.6 Z PDGFRA (PDGFR alpha) Km app -6.8 Z
RAF1 (cRAF) Y340D Y341D 100 7.9 Z DYRK3 Km app 2.6 Z CAMK2A (CaMKII alpha) Km app -0.6 Z NEK9 Km app -7.2 Z
PI4KA (PI4K alpha) 10 7.8 A CSNK1D (CK1 delta) Km app 2.6 Z PRKCB1 (PKC beta I) Km app -0.7 Z PDK1 Km app -7.3 Z
HIPK2 Km app 7.8 Z ACVR2A n/a 2.5 L TTK n/a -0.7 L RPS6KB1 (p70S6K) Km app -7.8 Z […]

T1 sequence (Q9H093 whole entry): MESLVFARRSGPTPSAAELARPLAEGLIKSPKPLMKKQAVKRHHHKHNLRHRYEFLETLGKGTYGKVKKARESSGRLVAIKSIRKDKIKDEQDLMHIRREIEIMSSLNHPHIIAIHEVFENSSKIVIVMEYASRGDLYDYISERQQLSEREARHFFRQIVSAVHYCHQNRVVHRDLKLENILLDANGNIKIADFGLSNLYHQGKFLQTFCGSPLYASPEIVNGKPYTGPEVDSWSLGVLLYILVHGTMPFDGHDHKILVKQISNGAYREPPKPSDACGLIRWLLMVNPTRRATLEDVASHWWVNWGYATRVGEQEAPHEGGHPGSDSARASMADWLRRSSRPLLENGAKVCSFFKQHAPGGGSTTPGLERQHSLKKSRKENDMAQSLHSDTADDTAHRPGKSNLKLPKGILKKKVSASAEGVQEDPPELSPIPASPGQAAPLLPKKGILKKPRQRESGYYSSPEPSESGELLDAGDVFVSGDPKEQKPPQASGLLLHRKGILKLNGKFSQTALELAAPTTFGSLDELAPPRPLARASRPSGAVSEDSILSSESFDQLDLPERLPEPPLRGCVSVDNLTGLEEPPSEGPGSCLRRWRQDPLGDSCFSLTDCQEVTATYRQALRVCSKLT

SMILES: CN(C(=O)CN1CCOCC1)c1ccc2sc3c(-c4cccc5c(=O)cc(N6CC7CCC(C6)O7)oc45)cccc3c2c1 [NU5455]
- % displacement: 1.0%
